{
  "source": "paper PMC5580238",
  "about": "(ACS chemical neuroscience, 2016)",
  "key": {"[1]": {"target": "T807 site in AD brain tissue homogenates (NFTs) (Homo sapiens, UniProt P10636)", "sequence (P10636 623-708 limits assumed)": "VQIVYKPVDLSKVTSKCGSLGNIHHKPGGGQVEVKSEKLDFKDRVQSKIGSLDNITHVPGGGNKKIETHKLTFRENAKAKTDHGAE", "type": "binding", "conditions": "for Inhibition of specific binding of [3H]T807 to AD brain tissue homogenate: compound at 1 μM concentration"}, "[2]": {"target": "PIB site in AD brain tissue homogenates (thioflavin-T binding site on β-amyloid plaques) (Homo sapiens, UniProt P05067)", "sequence (P05067 672-711 limits assumed)": "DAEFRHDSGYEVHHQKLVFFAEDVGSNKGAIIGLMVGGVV"}, "[3]": {"target": "THK-523 site in AD brain tissue homogenates (NFTs) (Homo sapiens, UniProt P10636)", "sequence (P10636 623-708 limits assumed)": "as the sequence (P10636 623-708 limits assumed) above", "type": "binding", "conditions": "for Inhibition of specific binding of [3H]THK-523 to AD brain tissue homogenate: compound at 1 μM concentration; for Ki: Ki with [3H]THK-523 as reference radioligand"}, "[4]": {"experiment": "Ligand solubility in binding assay media", "type": "physicochemical", "conditions": "in water or PBS"}, "AD brain homogenate": {"target": "AD brain homogenate (Homo sapiens, UniProt P10636)", "sequence (P10636 2-758)": "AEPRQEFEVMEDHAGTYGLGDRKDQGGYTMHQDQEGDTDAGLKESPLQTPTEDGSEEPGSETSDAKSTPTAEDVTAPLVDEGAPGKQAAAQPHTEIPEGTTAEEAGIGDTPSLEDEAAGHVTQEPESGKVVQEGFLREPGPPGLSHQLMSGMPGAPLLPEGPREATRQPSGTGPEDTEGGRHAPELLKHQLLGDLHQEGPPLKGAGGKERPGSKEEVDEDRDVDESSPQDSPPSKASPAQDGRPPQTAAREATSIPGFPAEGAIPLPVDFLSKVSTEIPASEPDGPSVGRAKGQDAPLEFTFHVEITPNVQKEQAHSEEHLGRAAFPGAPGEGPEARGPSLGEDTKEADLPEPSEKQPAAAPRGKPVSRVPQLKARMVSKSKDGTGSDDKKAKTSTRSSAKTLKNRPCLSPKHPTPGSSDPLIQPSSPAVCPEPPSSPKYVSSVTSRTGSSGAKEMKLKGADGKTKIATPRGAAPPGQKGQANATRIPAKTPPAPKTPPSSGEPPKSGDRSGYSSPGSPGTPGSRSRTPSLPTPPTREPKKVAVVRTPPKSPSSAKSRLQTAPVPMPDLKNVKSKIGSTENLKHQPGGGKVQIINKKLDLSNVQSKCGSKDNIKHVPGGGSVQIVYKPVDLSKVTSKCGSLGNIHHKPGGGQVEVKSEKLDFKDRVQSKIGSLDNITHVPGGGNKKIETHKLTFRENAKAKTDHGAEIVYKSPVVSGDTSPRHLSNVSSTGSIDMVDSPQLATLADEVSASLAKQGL", "experiment": "Titration", "type": "binding", "conditions": "titration with [18F]THK-523 plus THK-523; curve fit"}},
  "note": "“Also recorded” adds a separate entry of the source. Where two headings read alike, the source gives them in different places.",
  "data": [
    {"smiles": "Nc1ccc(-c2ccc3cc(OCCOCCF)ccc3n2)cc1", "note": "[10b, 4-(6-(2-(2-Fluoroethoxy)ethoxy)quinolin-2-yl)aniline]", "values": [
      {"measurement": "Ki", "setting": "[1]", "value": "> 1000", "unit": "nM"},
      {"measurement": "Ki", "setting": "[2]", "value": "> 1000", "unit": "nM"}
    ]},
    {"smiles": "Nc1ccc(-c2ccc3cc(OCCOCCOCCF)ccc3n2)cc1", "note": "[10c, 4-(6-(2-(2-(2-Fluoroethoxy)ethoxy)ethoxy)quinolin-2-yl)aniline]", "values": [
      {"measurement": "Ki", "setting": "[1]", "value": "> 1000", "unit": "nM"},
      {"measurement": "Ki", "setting": "[2]", "value": "> 1000", "unit": "nM"}
    ]},
    {"smiles": "Nc1ccc(-c2ccc3cc(OCCOCCOCCOCCF)ccc3n2)cc1", "note": "[10d, 4-(6-(2-(2-(2-(2-Fluoroethoxy)ethoxy)ethoxy)ethoxy)quinolin-2-yl)aniline]", "values": [
      {"measurement": "Ki", "setting": "[1]", "value": "> 1000", "unit": "nM"},
      {"measurement": "Ki", "setting": "[2]", "value": "> 1000", "unit": "nM"}
    ]},
    {"smiles": "Nc1ccc(-c2ccc3cc(OCCOCCOCCOCCOCCF)ccc3n2)cc1", "note": "[10e, 4-(6-((14-Fluoro-3,6,9,12-tetraoxatetradecyl)oxy)quinolin-2-yl)-aniline]", "values": [
      {"measurement": "Ki", "setting": "[2]", "value": "43 ± 39", "unit": "nM"}
    ]},
    {"smiles": "Nc1ccc(-c2ccc3cc(OCCOCCOCCOCCOCCOCCF)ccc3n2)cc1", "note": "[10f, 4-(6-((17-Fluoro-3,6,9,12,15-pentaoxaheptadecyl)oxy)quinolin-2-yl)aniline]", "values": [
      {"measurement": "Ki", "setting": "[2]", "value": "> 500", "unit": "nM"}
    ]},
    {"smiles": "Nc1ccc(-c2ccc3cc(OCCOCCN4CCOC4=O)ccc3n2)cc1", "note": "[12c, 3-(2-(2-((2-(4-Aminophenyl)quinolin-6-yl)oxy)ethoxy)ethyl)-oxazolidin-2-one]", "values": [
      {"measurement": "Ki", "setting": "[1]", "value": "> 1000", "unit": "nM"},
      {"measurement": "Ki", "setting": "[2]", "value": "> 1000", "unit": "nM"}
    ]},
    {"smiles": "Nc1ccc(-c2ccc3cc(OCCOCCNCCO)ccc3n2)cc1", "note": "[12f, 2-((2-(2-((2-(4-Aminophenyl)quinolin-6-yl)oxy)ethoxy)ethyl)-amino)ethan-1-ol]", "values": [
      {"measurement": "Ki", "setting": "[1]", "value": "> 1000", "unit": "nM"},
      {"measurement": "Ki", "setting": "[2]", "value": "> 1000", "unit": "nM"}
    ]},
    {"smiles": "Fc1ccc(-c2ccc3c(c2)[nH]c2ccncc23)cn1", "note": "[T807]", "values": [
      {"measurement": "Inhibition of specific binding of [3H]THK-523 to AD brain tissue homogenate", "setting": "[3]; 1 µM", "value": "failed to inhibit; also recorded: very low inhibition"},
      {"measurement": "Inhibition of specific binding of [3H]T807 to AD brain tissue homogenate", "setting": "[1]", "value": "full inhibition"}
    ]},
    {"smiles": "Nc1ccc(-c2ccc3cc(OCCF)ccc3n2)cc1", "note": "[THK-523, 4-(6-(2-Fluoroethoxy)quinolin-2-yl)aniline]", "values": [
      {"measurement": "Solubility", "setting": "[4]", "value": "insoluble"},
      {"measurement": "Ki", "setting": "[3]; 20% ethanol wash", "value": "28 ± 6", "unit": "nM"},
      {"measurement": "Ki", "setting": "[3]; Tris-buffer (pH 7.2) wash", "value": "52 ± 14", "unit": "nM"},
      {"measurement": "Ki", "setting": "[3]; neat ethanol wash", "value": "45 ± 12", "unit": "nM"},
      {"measurement": "Inhibition of specific binding of [3H]THK-523 to AD brain tissue homogenate", "setting": "[3]", "value": "full inhibition"},
      {"measurement": "Ki", "setting": "[1]", "value": "425 ± 383", "unit": "nM"},
      {"measurement": "Inhibition of specific binding of [3H]T807 to AD brain tissue homogenate", "setting": "[1]; 1 µM", "value": "failed to inhibit"},
      {"measurement": "Inhibition of specific binding of [3H]T807 to AD brain tissue homogenate", "setting": "[1]; listed as THK-523 (10a), 1 µM", "value": "very low inhibition"},
      {"measurement": "Ki", "setting": "[2]", "value": "> 1000", "unit": "nM"}
    ]},
    {"smiles": "Nc1ccc(-c2ccc3cc(OCCF)ccc3n2)cc1", "note": "[[^18F]THK-523]", "values": [
      {"measurement": "Bmax (concentration of maximal binding sites)", "setting": "AD brain homogenate", "value": "1639 ± 235", "unit": "dpm"},
      {"measurement": "NS (coefficient of nonspecific binding)", "setting": "AD brain homogenate", "value": "169 ± 3"}
    ]}
  ]
}
